# Tests used:
# Type in all cases: in vivo
# [1] = tested on: Sox 9; test: Sox 9 immunofluorescence in spinal cord sections after contusion injury; conditions: rats with contusion injuries to the spinal cord, versus control
# Text: FIG. 5A and FIG. 5B are images illustrating a section of control (FIG. 5A) and 4-AP (FIG. 5B) treated animals labeled with anti-Sox 9 (bright spots) and DAPI (darker grey). Arrows highlight the cells that were used to define the baseline threshold for Sox 9 immunofluorescence. Size bar represents 20 μm. FIG. 5C is a graph showing quantification of FIG. 5A and FIG. 5B using the threshold shown in A as baseline. N=3, *p=0.045 t-test.
# The ability of daily 4-AP administration to provide benefit at the tissue level was investigated, leading to the wholly unexpected discovery of effects of 4-AP that are relevant to traumatic injuries in a wide range of tissues. The first such observation came from examination of the expression of Sox 9, a transcription factor that is expressed in a wide range of tissues of the nervous system, other excitable tissues and tissues that are not considered to be excitable (including, for example, pancreas, lung, chondrocytes, cartilage, liver, breast, prostate, colorectal, intestine and testis). Among other roles, Sox 9 controls production and expression of chondroitin sulfate proteoglycan, a critical component of scar in many different tissues. […]
# [2] = tested on: glial fibrillary acidic protein (GFAP); test: GFAP labeling (scarring marker) in spinal cord sections after contusion injury; conditions: rats with spinal cord contusion, compared with saline
# Text: FIG. 6A and FIG. 6B are images illustrating a section of spinal cords of placebo (saline) (FIG. 6A) and 4-AP (FIG. 6B) treated animals labeled with antibody against glial fibrillary acidic protein (GFAP), which is a marker of scarring in all regions of the central nervous system, (bright spots in FIG. 6A) and DAPI (bright spots in FIG. 6B). indicates the lesion edge. The size bar represents 100 μm. […] These outcomes provide further evidence that 4-AP administration is regulating a response to traumatic injury that is of relevance to traumatic injury in all tissues.
# FIGS. 6A-6B further examines expression of a protein called glial fibrillary acidic protein (GFAP), which is one of the markers of scarring in all regions of the central nervous system. […] These outcomes provide further evidence that 4-AP administration is regulating a response to traumatic injury that is of relevance to traumatic injury in all tissues.
# [3] = tested on: lipofuscin; test: Auto-fluorescence / lipofuscin accumulation after spinal cord contusion injury; conditions: rats with contusion injuries to the spinal cord
# Text: 4-aminopyridine administration decreases auto-fluorescence following contusion injury to the spinal cord. One of the responses to tissue injury in a broad variety of tissues is the accumulation of substances that may be given the general name of lipofuscin, a name given to lipid-containing residues of lysosomal digestion. This pigment is thought to be the product of oxidation of unsaturated fatty acids and is considered indicative of membrane damage of a nature that occurs widely in tissue injury, a variety of diseases and in aging. Lipofuscin is most readily observed as an auto-fluorescent component of tissue that is seen when tissue is excited with a wide range of […] wavelengths normally used for studying fluorescently labeled proteins, such as antibodies, that are widely used in studying all of the tissues of the body. Lipofuscin accumulation has been reported for cell types of a wide range of tissues, particularly after injury, including liver, kidney, heart muscle, retina, adrenal gland, nerve cells, and red-blood cells, in post-traumatic arthritis and in other tissues.
# This is another wholly unexpected ability of 4-AP to beneficially modulate an outcome of traumatic injury that is applicable to a wide range of different tissues.
# [4] = tested on: contusion injury to the spinal cord; test: Lesion volume 3 days after spinal cord contusion injury; conditions: rats with spinal cord contusion, sacrificed 3 days after injury
# Procedure: FIG. 7 is a graph showing the unexpected ability of 4-AP to modulate outcomes of traumatic injury that are of relevance to the injury in all tissues of the body is the ability to decrease lesion size. In these experiments, rats received identical injuries as discussed in Example 1, except that these rats were sacrificed 3 days after injury. Lesion size, in cubic millimeters (mm^3) was calculated by imaging collected tissue sections covering the full dimensions of the injury using Stereolnvestigator and contours were traced to cover the region of the tissue in which damage was apparent. All slides were measured by a blinded individual. Lesion volume was thus determined. […]
# Still another example of the unexpected ability of 4-AP to modulate outcomes of traumatic injury that are of relevance to such injury in all tissues of the body is the ability to decrease lesion size. […] Lesion size, in cubic millimeters (mm^3) was calculated by imaging collected tissue sections covering the full dimensions of the injury using Stereolnvestigator and contours were traced to cover the region of the tissue in which damage was apparent. All slides were measured by a blinded individual. Lesion volume was thus determined.
# [5] = tested on: P-zero myelin protein; test: P0 myelin protein in tissue lysates after sciatic nerve crush; conditions: mice, tissue lysates at 21 days post-injury/treatment
# [6] = tested on: skeletal muscle atrophy; test: Skeletal muscle atrophy after complete denervation (nerve transection)
# Procedure: Treatment with 4AP decreased muscle expression of MuRF-1 (FIG. 11A) and myogenin (FIG. 11B) (both normalized to GADPH) after complete denervation. […] Thus, the beneficial effects of 4AP on parameters of atrophy were not dependent on restoration of normal motor usage. *=p<0.05; ** p<0.01.
# In this example, the nerve innovating the extensor digitorum longus muscle was completely transected 15-25 mm distant from the muscle. 4-AP was then administered during the acute and subacute post-injury periods.
# [7] = after complete denervation, daily 4-AP
compound,measurement,setting,value
"Nc1ccncc1 [4-AP, 4-aminopyridine]",expression of Sox9,[1],greatly decrease the expression of Sox9
same,"GFAP, marker of central nervous system scarring",[2],greatly decreased
same,lipofuscin accumulation (tissue auto-fluorescence),[3],little evidence of lipofuscin accumulation
same,lesion size (lesion volume),[4],greatly decreasing lesion size
same,more P0 protein in the lesion area than in nerves of vehicle-treated animals,[5],61+/−15%
same,muscle expression of MuRF-1 (normalized to GADPH),[6]; [7],decreased
same,muscle expression of myogenin (normalized to GADPH),[6]; [7],decreased
same,recovery of gait function,[6]; denervated animals,did not show any recovery of gait function

# From patent US20180271847A1, “TREATMENT OF ACUTE TRAUMATIC INJURY” (priority 2015, published 2018)
